# Assays:
# hERG (KCNH2) = hERG (KCNH2) (Homo sapiens, UniProt Q12809); assay: Displacement of [3H] astemizole from human ERG channel at 5 uM; details: probe [3H] astemizole
# [1] = target: Sodium channel protein type 5 subunit alpha (Homo sapiens, UniProt Q14524); assay: Inhibition of full length human Nav1.5 channel expressed in HEK cells co-expressing human sodium channel subunit beta1 at holding potential -60 mV by automated voltage clamp analysis; assay type: cell-based, HEK293
# [2] = Selectivity ratio of IC50 for rat Nav1.7 to IC50 for human Nav1.7
# [3] = target: Sodium channel protein type 9 subunit alpha (Rattus norvegicus, UniProt O08562); assay: Inhibition of rat Nav1.7 channel by automated voltage clamp analysis
# Homo sapiens = species on record: Homo sapiens; assay: Selectivity ratio of IC50 for human Nav1.5 to IC50 for human Nav1.7
# [4] = AUC (0 to infinity) in Sprague-Dawley rat at 20 mg/kg, ip; assay type: ADME, organism-based; design: dose 20 mg/kg, route intraperitoneal, time infinity; details: in vivo
# [5] = Half life in Sprague-Dawley rat at 20 mg/kg, ip; assay type: ADME, organism-based; details: in vivo
# [6] = target: T1, Sodium channel protein type 9 subunit alpha (Homo sapiens, UniProt Q15858); assay: Inhibition of full length human Nav1.7 channel expressed in HEK cells co-expressing human sodium channel subunit beta3 at -150 mV by manual voltage clamp analysis; assay type: cell-based, HEK293
# T1 sequence (Q15858 whole entry): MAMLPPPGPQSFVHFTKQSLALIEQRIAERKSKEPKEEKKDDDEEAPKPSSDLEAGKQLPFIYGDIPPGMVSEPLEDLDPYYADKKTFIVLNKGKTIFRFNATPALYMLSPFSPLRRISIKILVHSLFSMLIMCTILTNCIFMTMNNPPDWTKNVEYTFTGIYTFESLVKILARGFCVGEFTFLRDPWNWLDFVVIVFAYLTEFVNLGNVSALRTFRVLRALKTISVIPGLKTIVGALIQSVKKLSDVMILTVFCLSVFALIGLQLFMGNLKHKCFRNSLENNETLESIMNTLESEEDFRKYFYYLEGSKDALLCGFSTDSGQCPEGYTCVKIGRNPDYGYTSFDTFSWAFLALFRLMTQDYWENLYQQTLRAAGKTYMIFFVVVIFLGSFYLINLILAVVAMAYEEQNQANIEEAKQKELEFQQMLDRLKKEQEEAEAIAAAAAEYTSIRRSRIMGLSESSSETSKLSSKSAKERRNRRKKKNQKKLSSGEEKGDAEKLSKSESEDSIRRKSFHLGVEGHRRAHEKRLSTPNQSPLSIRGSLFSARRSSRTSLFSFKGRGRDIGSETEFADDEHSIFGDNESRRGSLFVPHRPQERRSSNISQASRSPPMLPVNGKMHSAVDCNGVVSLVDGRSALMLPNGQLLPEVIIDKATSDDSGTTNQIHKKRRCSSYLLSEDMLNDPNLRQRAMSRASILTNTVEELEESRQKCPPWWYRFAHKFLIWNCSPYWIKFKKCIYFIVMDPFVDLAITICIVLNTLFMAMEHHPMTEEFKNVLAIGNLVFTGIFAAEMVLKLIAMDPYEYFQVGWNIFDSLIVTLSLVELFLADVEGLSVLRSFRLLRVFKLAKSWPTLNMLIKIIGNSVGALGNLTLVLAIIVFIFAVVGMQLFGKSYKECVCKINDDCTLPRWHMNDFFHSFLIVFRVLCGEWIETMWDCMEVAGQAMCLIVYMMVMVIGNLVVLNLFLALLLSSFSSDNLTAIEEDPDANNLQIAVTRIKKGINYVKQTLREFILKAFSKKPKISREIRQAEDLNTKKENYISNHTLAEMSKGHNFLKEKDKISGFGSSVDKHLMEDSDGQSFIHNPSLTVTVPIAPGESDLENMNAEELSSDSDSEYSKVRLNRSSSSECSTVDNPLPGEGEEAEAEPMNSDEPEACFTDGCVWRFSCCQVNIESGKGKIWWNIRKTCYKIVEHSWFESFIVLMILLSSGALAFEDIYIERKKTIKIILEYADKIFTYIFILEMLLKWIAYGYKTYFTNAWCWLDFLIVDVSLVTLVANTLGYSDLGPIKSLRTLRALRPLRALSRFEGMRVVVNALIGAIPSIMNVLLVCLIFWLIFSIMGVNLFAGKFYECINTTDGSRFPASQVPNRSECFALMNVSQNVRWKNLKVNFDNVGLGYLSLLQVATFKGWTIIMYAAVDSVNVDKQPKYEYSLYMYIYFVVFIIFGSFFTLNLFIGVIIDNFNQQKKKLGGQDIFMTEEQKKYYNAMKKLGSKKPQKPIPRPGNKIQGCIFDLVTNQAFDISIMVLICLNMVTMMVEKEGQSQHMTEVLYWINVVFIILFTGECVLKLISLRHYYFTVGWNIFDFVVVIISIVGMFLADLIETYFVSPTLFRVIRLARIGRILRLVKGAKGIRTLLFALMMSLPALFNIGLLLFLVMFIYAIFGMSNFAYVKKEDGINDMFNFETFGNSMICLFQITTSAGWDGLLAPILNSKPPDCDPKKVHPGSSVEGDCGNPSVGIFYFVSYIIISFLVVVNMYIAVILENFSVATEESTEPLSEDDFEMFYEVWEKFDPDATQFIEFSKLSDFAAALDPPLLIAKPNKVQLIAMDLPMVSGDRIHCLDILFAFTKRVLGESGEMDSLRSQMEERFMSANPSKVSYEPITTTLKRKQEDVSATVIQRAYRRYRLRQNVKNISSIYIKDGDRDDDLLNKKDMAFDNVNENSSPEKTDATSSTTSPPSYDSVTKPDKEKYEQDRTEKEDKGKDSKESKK
# [7] = Plasma clearance in Sprague-Dawley rat at 1 mg/kg, iv; assay type: ADME, organism-based
# [8] = target: Sodium channel protein type 1 subunit alpha (Homo sapiens, UniProt P35498); assay: Inhibition of full length human Nav1.1 channel expressed in HEK cells co-expressing human sodium channel subunit beta1 at holding potential -40 mV by automated voltage clamp analysis; assay type: cell-based, HEK293
# [9] = Ratio of drug uptake in brain to plasma in Sprague-Dawley rat at 20 mg/kg, ip by UHPLC analysis; assay type: ADME, organism-based; details: read-out: BPR
# [10] = Dissociation constant, pKa of the compound at 100 uM by UV-spectrophotometric titration method; assay type: physicochemical
# Cytochrome P450 1A2 = target: T2, Cytochrome P450 1A2 (Homo sapiens, UniProt P05177); assay: Inhibition of CYP1A2 in human liver microsomes using phenacetin as substrate after 30 mins by LC/MS/MS analysis; assay type: ADME
# T2 sequence (P05177 whole entry): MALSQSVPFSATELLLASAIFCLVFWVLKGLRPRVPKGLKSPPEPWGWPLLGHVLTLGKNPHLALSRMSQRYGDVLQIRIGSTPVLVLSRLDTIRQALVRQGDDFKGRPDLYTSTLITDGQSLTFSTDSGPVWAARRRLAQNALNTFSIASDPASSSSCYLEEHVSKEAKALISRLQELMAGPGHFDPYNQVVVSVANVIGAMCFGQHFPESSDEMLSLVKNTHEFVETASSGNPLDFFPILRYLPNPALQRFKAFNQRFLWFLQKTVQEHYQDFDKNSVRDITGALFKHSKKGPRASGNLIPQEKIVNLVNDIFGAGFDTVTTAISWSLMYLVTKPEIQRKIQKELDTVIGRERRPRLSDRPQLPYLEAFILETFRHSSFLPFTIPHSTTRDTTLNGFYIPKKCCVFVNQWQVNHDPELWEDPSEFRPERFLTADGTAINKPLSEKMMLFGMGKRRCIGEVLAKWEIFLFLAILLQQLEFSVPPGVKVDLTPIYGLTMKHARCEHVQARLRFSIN
# [11] = Cmax in Sprague-Dawley rat at 1 mg/kg, iv; assay type: ADME, organism-based; design: dose 1 mg/kg, route intravenous; details: in vivo
# [12] = Efflux ratio of apparent permeability from apical to basolateral side to basolateral to apical side in MDCK1 cells expressing human MDR1 at 10 uM; assay type: ADME, cell-based, Canis lupus familiaris; details: dog, mdck1, 10 µM
# [13] = Plasma protein binding in rat at 10 uM incubated for 20 hrs by HPLC-MS/MS analysis; assay type: ADME, cell-free; details: read-out: PPB (converted)
# [14] = target: Sodium channel protein type 8 subunit alpha (Homo sapiens, UniProt Q9UQD0); assay: Inhibition of full length human Nav1.6 channel expressed in HEK cells co-expressing human sodium channel subunit beta1 at holding potential -35 mV by automated voltage clamp analysis; assay type: cell-based, HEK293
# [15] = Kinetic solubility of compound at pH 7.2; assay type: physicochemical; details: buffer, read-out: Kinetic_solubility
# Cytochrome P450 3A4 = Cytochrome P450 3A4 (Homo sapiens, UniProt P08684); assay: Inhibition of CYP3A4 in human liver microsomes using testosterone/midazolam as substrate after 30 mins by LC/MS/MS analysis; assay type: ADME
# [16] = Cmax in Sprague-Dawley rat at 20 mg/kg, ip; assay type: ADME, organism-based; design: dose 20 mg/kg, route intraperitoneal; details: in vivo
# [17] = target: Sodium channel protein type 2 subunit alpha (Homo sapiens, UniProt Q99250); assay: Inhibition of full length human Nav1.2 channel expressed in HEK cells co-expressing human sodium channel subunit beta1 at holding potential -35 mV by automated voltage clamp analysis; assay type: cell-based, HEK293
# [18] = Apparent permeability from apical to basolateral side in MDCK1 cells at 10 uM incubated for 2 hrs; assay type: ADME, cell-based, Canis lupus familiaris; details: dog, MDCK
# [19] = Volume of distribution at steady state in Sprague-Dawley rat at 1 mg/kg, iv; assay type: ADME, organism-based; details: in vivo, read-out: Vdss
# Cytochrome P450 2D6 = Cytochrome P450 2D6 (Homo sapiens, UniProt P10635); assay: Inhibition of CYP2D6 in human liver microsomes using dextromethorphan as substrate after 30 mins by LC/MS/MS analysis; assay type: ADME
# [20] = target: Sodium channel protein type 9 subunit alpha (Mus musculus, UniProt Q62205); assay: Inhibition of Nav1.7 channel in mouse CAD cells by whole-cell patch clamp assay; assay type: cell-based
# [21] = Half life in Sprague-Dawley rat at 1 mg/kg, iv; assay type: ADME, organism-based; details: in vivo
# [22] = Tmax in Sprague-Dawley rat at 20 mg/kg, ip; assay type: ADME, organism-based; details: in vivo
# [23] = target: T1, Sodium channel protein type 9 subunit alpha; assay: Inhibition of full length human Nav1.7 channel expressed in HEK cells co-expressing human sodium channel subunit beta1 at holding potential -60 mV by automated voltage clamp analysis; assay type: cell-based, HEK293
# [24] = AUC (0 to infinity) in Sprague-Dawley rat at 1 mg/kg, iv; assay type: ADME, organism-based; design: dose 1 mg/kg, time infinity, route intravenous; details: in vivo
# Cytochrome P450 2C9 = Cytochrome P450 2C9 (Homo sapiens, UniProt P11712); assay: Inhibition of CYP2C9 in human liver microsomes using warfarin as substrate after 30 mins by LC/MS/MS analysis; assay type: ADME
# [25] = target: Sodium channel protein type 3 subunit alpha (Homo sapiens, UniProt Q9NY46); assay: Inhibition of full length human Nav1.3 channel expressed in HEK cells co-expressing human sodium channel subunit beta1 at holding potential -50 mV by automated voltage clamp analysis; assay type: cell-based, HEK293
# [26] = target: Sodium channel protein type 10 subunit alpha (Homo sapiens, UniProt Q9Y5Y9); assay: Inhibition of full length human Nav1.8 channel expressed in HEK cells co-expressing human sodium channel subunit beta3 at holding potential -20 mV by manual voltage clamp analysis; assay type: cell-based, HEK293
# [27] = target: Sodium channel protein type 4 subunit alpha (Homo sapiens, UniProt P35499); assay: Inhibition of full length human Nav1.4 channel expressed in HEK cells co-expressing human sodium channel subunit beta1 by automated voltage clamp analysis; assay type: cell-based, HEK293
# Chain of Sodium channel protein type 5 subunit alpha (Q14524 whole entry): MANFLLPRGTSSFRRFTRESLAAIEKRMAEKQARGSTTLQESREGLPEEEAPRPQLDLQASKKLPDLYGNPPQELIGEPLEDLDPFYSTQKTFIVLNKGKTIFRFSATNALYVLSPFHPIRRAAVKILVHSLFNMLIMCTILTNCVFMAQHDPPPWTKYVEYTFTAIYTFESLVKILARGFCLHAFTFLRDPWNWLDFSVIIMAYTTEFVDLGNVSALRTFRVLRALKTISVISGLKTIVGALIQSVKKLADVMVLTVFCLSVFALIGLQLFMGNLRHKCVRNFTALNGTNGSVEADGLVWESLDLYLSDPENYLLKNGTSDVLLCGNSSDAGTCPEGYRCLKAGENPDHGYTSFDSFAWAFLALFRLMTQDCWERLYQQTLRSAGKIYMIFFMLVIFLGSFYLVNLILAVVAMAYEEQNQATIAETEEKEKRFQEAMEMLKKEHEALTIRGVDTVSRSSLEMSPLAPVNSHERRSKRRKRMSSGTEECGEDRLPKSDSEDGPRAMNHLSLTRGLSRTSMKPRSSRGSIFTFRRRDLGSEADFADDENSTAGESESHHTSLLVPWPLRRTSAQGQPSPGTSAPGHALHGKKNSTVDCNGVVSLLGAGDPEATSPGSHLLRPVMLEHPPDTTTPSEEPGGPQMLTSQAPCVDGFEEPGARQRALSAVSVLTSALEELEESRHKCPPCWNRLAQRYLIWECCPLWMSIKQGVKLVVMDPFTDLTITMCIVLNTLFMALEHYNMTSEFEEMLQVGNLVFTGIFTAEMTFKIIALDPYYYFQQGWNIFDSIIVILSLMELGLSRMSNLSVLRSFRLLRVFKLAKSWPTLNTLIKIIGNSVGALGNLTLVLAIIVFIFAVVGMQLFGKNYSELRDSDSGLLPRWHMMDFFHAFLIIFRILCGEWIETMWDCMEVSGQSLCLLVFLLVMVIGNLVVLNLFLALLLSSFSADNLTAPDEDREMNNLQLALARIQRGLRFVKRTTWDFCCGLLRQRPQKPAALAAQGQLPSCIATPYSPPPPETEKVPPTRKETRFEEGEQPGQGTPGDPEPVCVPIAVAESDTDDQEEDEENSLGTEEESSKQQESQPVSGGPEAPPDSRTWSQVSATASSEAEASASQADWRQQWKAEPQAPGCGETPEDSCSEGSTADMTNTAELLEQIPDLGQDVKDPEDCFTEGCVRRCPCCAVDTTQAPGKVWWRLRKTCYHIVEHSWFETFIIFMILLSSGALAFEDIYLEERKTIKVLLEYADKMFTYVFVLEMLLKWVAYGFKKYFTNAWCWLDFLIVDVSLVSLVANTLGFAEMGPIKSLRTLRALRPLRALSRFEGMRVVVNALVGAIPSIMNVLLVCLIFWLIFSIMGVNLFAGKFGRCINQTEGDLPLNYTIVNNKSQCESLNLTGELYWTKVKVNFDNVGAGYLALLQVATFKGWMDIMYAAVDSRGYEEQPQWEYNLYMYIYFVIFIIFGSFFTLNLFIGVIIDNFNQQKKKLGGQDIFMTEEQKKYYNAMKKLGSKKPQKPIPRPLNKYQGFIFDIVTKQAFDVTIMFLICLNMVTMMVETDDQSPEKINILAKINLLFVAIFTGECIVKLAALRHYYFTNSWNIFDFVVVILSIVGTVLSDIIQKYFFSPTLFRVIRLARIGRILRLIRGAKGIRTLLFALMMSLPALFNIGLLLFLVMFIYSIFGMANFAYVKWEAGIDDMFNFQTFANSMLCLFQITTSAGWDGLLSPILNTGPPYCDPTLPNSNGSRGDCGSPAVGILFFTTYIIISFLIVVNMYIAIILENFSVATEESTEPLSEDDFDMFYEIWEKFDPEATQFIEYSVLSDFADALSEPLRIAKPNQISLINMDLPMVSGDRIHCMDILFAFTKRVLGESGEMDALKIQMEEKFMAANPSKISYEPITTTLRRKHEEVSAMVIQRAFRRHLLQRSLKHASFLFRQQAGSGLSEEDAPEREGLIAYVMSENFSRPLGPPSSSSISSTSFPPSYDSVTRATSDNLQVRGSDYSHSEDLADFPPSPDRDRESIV
# Chain of hERG (KCNH2) (Q12809 whole entry): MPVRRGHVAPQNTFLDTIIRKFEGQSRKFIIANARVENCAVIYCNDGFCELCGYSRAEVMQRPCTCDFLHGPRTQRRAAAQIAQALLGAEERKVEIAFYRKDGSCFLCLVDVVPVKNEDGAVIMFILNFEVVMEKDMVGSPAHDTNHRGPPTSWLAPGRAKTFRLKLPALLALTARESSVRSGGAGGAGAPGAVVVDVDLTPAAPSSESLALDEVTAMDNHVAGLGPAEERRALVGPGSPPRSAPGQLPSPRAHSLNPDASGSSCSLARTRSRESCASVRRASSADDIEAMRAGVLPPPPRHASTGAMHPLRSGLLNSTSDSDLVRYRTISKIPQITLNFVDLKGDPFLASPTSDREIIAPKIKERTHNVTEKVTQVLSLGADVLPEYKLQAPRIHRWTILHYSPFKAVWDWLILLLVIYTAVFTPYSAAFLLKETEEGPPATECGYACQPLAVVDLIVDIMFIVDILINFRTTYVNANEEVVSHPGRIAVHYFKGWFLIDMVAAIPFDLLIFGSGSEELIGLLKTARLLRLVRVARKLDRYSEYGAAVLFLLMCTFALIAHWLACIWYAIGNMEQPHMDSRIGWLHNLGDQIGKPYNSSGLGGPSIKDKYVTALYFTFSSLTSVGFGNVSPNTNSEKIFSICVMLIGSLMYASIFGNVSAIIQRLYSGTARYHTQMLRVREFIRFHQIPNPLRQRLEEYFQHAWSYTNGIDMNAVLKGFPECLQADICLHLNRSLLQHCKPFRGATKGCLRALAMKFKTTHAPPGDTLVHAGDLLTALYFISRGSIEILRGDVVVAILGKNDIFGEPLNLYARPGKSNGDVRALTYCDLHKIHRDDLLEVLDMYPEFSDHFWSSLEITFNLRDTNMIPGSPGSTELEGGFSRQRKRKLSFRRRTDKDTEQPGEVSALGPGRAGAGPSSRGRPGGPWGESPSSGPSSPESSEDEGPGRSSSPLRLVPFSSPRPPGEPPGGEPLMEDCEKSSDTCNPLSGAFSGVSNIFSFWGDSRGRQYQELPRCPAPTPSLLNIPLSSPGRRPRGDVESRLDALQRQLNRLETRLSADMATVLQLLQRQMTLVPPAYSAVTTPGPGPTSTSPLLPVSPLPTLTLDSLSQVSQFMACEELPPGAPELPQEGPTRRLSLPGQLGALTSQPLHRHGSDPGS
structure (smiles),measurement,setting,value
O=c1[nH]c2ccc(-c3cc(Cl)ccc3Oc3cc(F)c(S(=O)(=O)Nc4ncns4)cc3F)cc2[nH]1,inhibition at 5 µM,hERG (KCNH2),< 11%
same,IC50,[1],> 10000 nM
CNc1noc2ccc(-c3cc(Cl)ccc3Oc3cc(F)c(S(=O)(=O)Nc4ncns4)cc3F)cc12,inhibition at 5 µM,hERG (KCNH2),< 11%
same,IC50,[1],230 nM
O=S(=O)(Nc1ncns1)c1cc(F)c(Oc2ccc(Cl)cc2-c2ccc3nccnc3c2)cc1F,Ratio IC50,[2],> 200
same,IC50,[3],740 nM
same,inhibition at 5 µM,hERG (KCNH2),< 11%
same,Ratio IC50,Homo sapiens,> 2700
same,IC50,[1],> 10000 nM
Nc1noc2ccc(-c3ccccc3Oc3cc(F)c(S(=O)(=O)Nc4ncns4)cc3F)cc12,inhibition at 5 µM,hERG (KCNH2),< 11%
O=S(=O)(Nc1ncns1)c1cc(F)c(Oc2ccc(Cl)cc2-c2ncc3cnccn23)cc1F,inhibition at 5 µM,hERG (KCNH2),< 11%
Nc1noc2ccc(-c3cc(Cl)ccc3Oc3cc(F)c(S(=O)(=O)Nc4ncns4)cc3F)cc12,AUC(0-inf),[4],13.5 µM·h
same,half-life,[5],132 min
same,IC50,[6],0.4 nM
same,clearance,[7],177 mL/min/kg
same,IC50,[8],3080 nM
same,Kp,[9],0.019
same,pKa at 100 µM,[10],3.2
same,IC50,Cytochrome P450 1A2,> 9000 nM
same,Cmax,[11],2.9 µM
same,Ratio,[12],47
same,"fraction unbound at 20 h, 10 µM",[13],0.011
same,IC50,[14],11 nM
same,solubility kinetic,[15],121 µM
same,IC50,Cytochrome P450 3A4,77 nM
same,IC50,[3],26 nM
same,Cmax,[16],5.3 µM
same,inhibition at 5 µM,hERG (KCNH2),< 11%
same,IC50,[17],4.2 nM
same,"Papp A→B at 2 h, 10 µM",[18],2.1 ×10⁻⁶ cm/s
same,Vd,[19],1.4 L/kg
same,IC50,[1],1380 nM
same,IC50,Cytochrome P450 2D6,> 9000 nM
same,IC50,[20],0.2 nM
same,half-life,[21],7.8 min
same,Tmax,[22],3.6 min
same,IC50,[23],0.4 nM
same,AUC(0-inf),[24],0.18 µM·h
same,IC50,Cytochrome P450 2C9,170 nM
Nc1noc2ccc(CCOc3cc(F)c(S(=O)(=O)Nc4ncns4)cc3F)cc12,inhibition at 5 µM,hERG (KCNH2),< 11%
same,IC50,[23],241 nM
Nc1nc2cc(-c3cc(Cl)ccc3Oc3cc(F)c(S(=O)(=O)Nc4ncns4)cc3F)ccc2[nH]1,IC50,[25],9330 nM
same,IC50,[8],6380 nM
same,IC50,[14],0.8 nM
same,IC50,[26],3850 nM
same,inhibition at 5 µM,hERG (KCNH2),< 11%
same,IC50,[17],0.2 nM
same,Ratio IC50,Homo sapiens,> 12000
same,IC50,[1],> 10000 nM
same,IC50,[27],> 10000 nM
O=S(=O)(Nc1ncns1)c1cc(F)c(Oc2ccc(Cl)cc2-c2ccc3[nH]cnc3c2)cc1F,inhibition at 5 µM,hERG (KCNH2),< 11%
same,IC50,[1],> 10000 nM
